Tests used:
Experiment in all cases: relative viability (nuclei count vs DMSO), 5 days (fraction); higher = more cells survive
Everolimus + Phenformin = compound: CO[C@H]1C[C@@H]2CC[C@@H](C)[C@@](O)(O2)C(=O)C(=O)N2CCCC[C@H]2C(=O)O[C@H]([C@H](C)C[C@@H]2CC[C@@H](OCCO)[C@H](OC)C2)CC(=O)[C@H](C)/C=C(\C)[C@@H](O)[C@@H](OC)C(=O)[C@H](C)C[C@H](C)/C=C/C=C/C=C/1C [Everolimus] + N=C(N)NC(=N)NCCc1ccccc1 [Phenformin] (partner 250 µM)
Summary of the method: (§1)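 Lung cancer cell lines were seeded in 1536-well plates and dosed by pin tool the next day, with either a single drug or a fixed anchor-drug dose combined with five library-drug doses (not always all listed) spaced in √10 steps. Five days later, one step fixed the cells and stained their nuclei (final 0.05% Triton X-100, 1% formaldehyde, 1 ug/ml Hoechst), and nuclei were counted on 4× images. Relative viability is the nuclei count in treated wells divided by the count in vehicle wells, and each value is the median of duplicate plates.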

Everolimus + Lapatinib = compound: CO[C@H]1C[C@@H]2CC[C@@H](C)[C@@](O)(O2)C(=O)C(=O)N2CCCC[C@H]2C(=O)O[C@H]([C@H](C)C[C@@H]2CC[C@@H](OCCO)[C@H](OC)C2)CC(=O)[C@H](C)/C=C(\C)[C@@H](O)[C@@H](OC)C(=O)[C@H](C)C[C@H](C)/C=C/C=C/C=C/1C [Everolimus] + CS(=O)(=O)CCNCc1ccc(-c2ccc3ncnc(Nc4ccc(OCc5cccc(F)c5)c(Cl)c4)c3c2)o1 [Lapatinib] (partner 2 µM)
Summary of the method: as §1

Everolimus + Trametinib = compound: CO[C@H]1C[C@@H]2CC[C@@H](C)[C@@](O)(O2)C(=O)C(=O)N2CCCC[C@H]2C(=O)O[C@H]([C@H](C)C[C@@H]2CC[C@@H](OCCO)[C@H](OC)C2)CC(=O)[C@H](C)/C=C(\C)[C@@H](O)[C@@H](OC)C(=O)[C@H](C)C[C@H](C)/C=C/C=C/C=C/1C [Everolimus] + CC(=O)Nc1cccc(-n2c(=O)n(C3CC3)c(=O)c3c(Nc4ccc(I)cc4F)n(C)c(=O)c(C)c32)c1 [Trametinib] (partner 0.02 µM)
Summary of the method: as §1

Everolimus + Olaparib = compound: CO[C@H]1C[C@@H]2CC[C@@H](C)[C@@](O)(O2)C(=O)C(=O)N2CCCC[C@H]2C(=O)O[C@H]([C@H](C)C[C@@H]2CC[C@@H](OCCO)[C@H](OC)C2)CC(=O)[C@H](C)/C=C(\C)[C@@H](O)[C@@H](OC)C(=O)[C@H](C)C[C@H](C)/C=C/C=C/C=C/1C [Everolimus] + O=C(c1cc(Cc2n[nH]c(=O)c3ccccc23)ccc1F)N1CCN(C(=O)C2CC2)CC1 [Olaparib] (partner 8 µM)
Summary of the method: as §1

Cell Line | relative viability (Everolimus + Phenformin; first compound 0.01 µM) | relative viability (Everolimus + Phenformin; first compound 0.03162 µM) | relative viability (Everolimus + Phenformin; first compound 0.1 µM) | relative viability (Everolimus + Phenformin; first compound 0.3162 µM) | relative viability (Everolimus + Phenformin; first compound 1 µM) | relative viability (Everolimus + Lapatinib; first compound 0.01 µM) | relative viability (Everolimus + Lapatinib; first compound 0.03162 µM) | relative viability (Everolimus + Lapatinib; first compound 0.1 µM) | relative viability (Everolimus + Lapatinib; first compound 0.3162 µM) | relative viability (Everolimus + Lapatinib; first compound 1 µM) | relative viability (Everolimus + Trametinib; first compound 0.01 µM) | relative viability (Everolimus + Trametinib; first compound 0.03162 µM) | relative viability (Everolimus + Trametinib; first compound 0.1 µM) | relative viability (Everolimus + Trametinib; first compound 0.3162 µM) | relative viability (Everolimus + Trametinib; first compound 1 µM) | relative viability (Everolimus + Olaparib; first compound 0.01 µM) | relative viability (Everolimus + Olaparib; first compound 0.03162 µM) | relative viability (Everolimus + Olaparib; first compound 0.1 µM) | relative viability (Everolimus + Olaparib; first compound 0.3162 µM) | relative viability (Everolimus + Olaparib; first compound 1 µM)
BEN | 0.289 | 0.249 | 0.273 | 0.24 | 0.26 | 0.366 | 0.302 | 0.28 | 0.34 | 0.377 | 0.494 | 0.447 | 0.467 | 0.484 | 0.46 | 0.671 | 0.472 | 0.505 | 0.512 | 0.59
NCI-H23 | 0.641 | 0.607 | 0.508 | 0.593 | 0.496 | 0.736 | 0.685 | 0.491 | 0.695 | 0.693 | 0.248 | 0.204 | 0.218 | 0.252 | 0.216 | 0.261 | 0.219 | 0.267 | 0.221 | 0.22
NCI-H520 | 0.242 | 0.255 | 0.242 | 0.207 | 0.244 | 0.379 | 0.39 | 0.313 | 0.285 | 0.405 | 0.292 | 0.286 | 0.245 | 0.249 | 0.256 | 0.29 | 0.209 | 0.296 | 0.18 | 0.312
CAL-12T | 0.472 | 0.549 | 0.356 | 0.503 | 0.482 | 0.483 | 0.426 | 0.33 | 0.463 | 0.433 | 0.193 | 0.187 | 0.172 | 0.191 | 0.191 | 0.527 | 0.486 | 0.483 | 0.473 | 0.379
EPLC-272H | 0.281 | 0.259 | 0.236 | 0.245 | 0.268 | 0.615 | 0.73 | 0.543 | 0.605 | 0.587 | 0.199 | 0.227 | 0.179 | 0.205 | 0.204 | 0.552 | 0.484 | 0.428 | 0.429 | 0.483
NCI-H2405 | 0.364 | 0.353 | 0.33 | 0.335 | 0.382 | 0.84 | 0.903 | 0.712 | 0.872 | 0.796 | 0.419 | 0.362 | 0.385 | 0.426 | 0.431 | 0.757 | 0.745 | 0.681 | 0.713 | 0.686
HCC-15 | 0.465 | 0.474 | 0.459 | 0.497 | 0.471 | 0.899 | 0.899 | 0.881 | 0.981 | 0.871 | 0.35 | 0.344 | 0.334 | 0.282 | 0.32 | 0.723 | 0.796 | 0.642 | 0.656 | 0.647
PC-3 [JPC-3] | 0.454 | 0.461 | 0.408 | 0.461 | 0.463 | 0.372 | 0.382 | 0.346 | 0.359 | 0.412 | 0.601 | 0.582 | 0.531 |  | 0.681 | 1.07 | 1.21 | 1.1 |  | 1.05
